Assay results as given in patent US4220587A, “Amino acid derivatives of 6-(2-amino-2-arylacetamido)penicillanic acids” (Mitsubishi Chemical Industries, Limited, priority 1975, dated 1980).
≈ marks a conversion by molar mass, not a printed value. Read-outs that look alike come from different tables or passages of the source.

Columns and labels:
Type in all cases: cell-based
[1] = test system: Staph. aureus (FDA 209P); assay: MIC, agar dilution, Staph. aureus; conditions: Staphylococcus aureus, FDA209P, 20 h, read-out: Minimum Inhibitory Concentration (MIC)
Description: (§1) The compounds of this invention were tested for antibacterial activity according to the following procedure. Nutrient broth and nutrient agar were prepared according to the conventional procedure. […] was used as a vehicle. The stock solution was prepared at 100 μg/ml of the test material in the vehicle. Two-fold dilutions were made with the vehicle and then the diluted stock solution was added to a petri dish and solidified by chilling. Test organisms were grown in the nutrient broth for 20 hours at 37° C. The hardened surface was inoculated with a loopful of the test organism solution containing 1×10^6 cells per milliliter and incubated for 20 hours at 37° C. At the end of this period, growth of the organism was observed. […] The following Table 1 summarizes the activity of representative compounds as active antibacterial agents, and compares them with the prior art compounds and the reference drug Sulbenicillin.

[2] = test system: E. coli (NIHJ); assay: MIC, agar dilution, E. coli; conditions: Escherichia coli, 20 h, read-out: Minimum Inhibitory Concentration (MIC)
Description: as §1

[3] = test system: Proteus vulgaris (IFO 3045); assay: MIC, agar dilution, Proteus vulgaris; conditions: Proteus vulgaris, IFO3045, 20 h, read-out: Minimum Inhibitory Concentration (MIC)
Description: as §1

[4] = test system: Proteus mirabilis (IFO 3849); assay: MIC, agar dilution, Proteus mirabilis; conditions: Proteus mirabilis, IFO3849, 20 h, read-out: Minimum Inhibitory Concentration (MIC)
Description: as §1

[5] = test system: Proteus morgani (IFO 3848); assay: MIC, agar dilution, Proteus morgani; conditions: Morganella morganii, IFO3848, 20 h, read-out: Minimum Inhibitory Concentration (MIC)
Description: as §1

[6] = test system: Klebsiella pneumoniae (ATCC 25955); assay: MIC, agar dilution, Klebsiella pneumoniae; conditions: Klebsiella pneumoniae, ATCC25955, 20 h, read-out: Minimum Inhibitory Concentration (MIC)
Description: as §1

[7] = test system: Pseudomonas aeruginosa M-12; assay: MIC, agar dilution, Pseudomonas aeruginosa M-12; conditions: ATCC15692, 20 h, read-out: Minimum Inhibitory Concentration (MIC)
Description: as §1
^*2 chloramphenicol resistant strain derived from Pseudomonas

[8] = test system: Pseudomonas aeruginosa M-16; assay: MIC, agar dilution, Pseudomonas aeruginosa M-16; conditions: M16, 20 h, read-out: Minimum Inhibitory Concentration (MIC)
Description: as §1
^*3 streptomycin, chloramphenicol and mercury resistant strain derive

[9] = test system: Pseudomonas aeruginosa (ATCC 15691); assay: MIC, agar dilution, Pseudomonas aeruginosa ATCC 15691; conditions: ATCC15691, 20 h, read-out: Minimum Inhibitory Concentration (MIC)
Description: as §1

[10] = test system: Pseudomonas aeruginosa M-11; assay: MIC, agar dilution, Pseudomonas aeruginosa M-11; conditions: 20 h, read-out: Minimum Inhibitory Concentration (MIC)
Description: as §1
^*1 streptomycin resistant strain derived from Pseudomonas aeruginosa

[11] = test system: Salmonella typhimurium (TA 100); assay: MIC, agar dilution, Salmonella typhimurium; conditions: Salmonella enterica, read-out: Minimum Inhibitory Concentration (MIC)
Description: as §1

[12] = test system: Pseudomonas aeruginosa; assay: MIC, agar dilution, Pseudomonas aeruginosa (strain not given); conditions: ATCC 15691 / ATCC 15692, 20 h, read-out: Minimum Inhibitory Concentration (MIC)
Description: as §1

[13] = Salmonella typhimurium TA 100, ampicillin resistant strain, nutrient agar, 20 hours at 37° C.

SMILES | MIC [1] [µg/mL] | MIC [2] [µg/mL] | MIC [3] [µg/mL] | MIC [4] [µg/mL] | MIC [5] [µg/mL] | other results
CC1(C)S[C@@H]2[C@H](NC(=O)[C@H](NC(=O)[C@H]3CCCN3)c3ccccc3)C(=O)N2[C@H]1C(=O)O [Compound 1] | 0.45 (≈ 1.01 µM) | 6.2 (≈ 13.9 µM) | 1.5 (≈ 3.36 µM) | 1.5 (≈ 3.36 µM) | 3.1 (≈ 6.94 µM) | MIC [6]: 50 µg/mL (≈ 112 µM); MIC [7]: 3.1 µg/mL (≈ 6.94 µM); MIC [8]: 3.1 µg/mL (≈ 6.94 µM); MIC [9]: 12.5 µg/mL (≈ 28 µM)
CC1(C)S[C@@H]2[C@H](NC(=O)[C@H](NC(=O)[C@H]3CCCN3C(=O)OCc3ccccc3)c3ccccc3)C(=O)N2[C@H]1C(=O)O [Compound 2, potassium 6-[D-2-(N-benzyloxycarbonyl-D-prolyl)amino-2-phenylacetamido]penicillanatemonohydrate] | 1.25 | – | – | – | – | –
CC1(C)S[C@@H]2[C@H](NC(=O)[C@H](NC(=O)[C@H]3CCCN3C(=O)OCc3ccccc3)c3ccc(O)cc3)C(=O)N2[C@H]1C(=O)O [Compound 5] | 2.5 (≈ 4.19 µM) | – | – | – | – | –
CC1(C)S[C@@H]2[C@H](NC(=O)[C@H](NC(=O)[C@@H]3CCCN3C(=O)OCc3ccccc3)c3ccc(O)cc3)C(=O)N2[C@H]1C(=O)O [Compound 6] | 1.25 (≈ 2.09 µM) | – | – | – | – | –
CC1(C)S[C@@H]2[C@H](NC(=O)[C@H](NC(=O)[C@H]3CCCCN3)c3ccc(O)cc3)C(=O)N2[C@H]1C(=O)O [Compound 7] | 1.25 (≈ 2.62 µM) | 25 (≈ 52.5 µM) | < 6.2 | 9 (≈ 18.9 µM) | < 6.2 | MIC [6]: 9 µg/mL (≈ 18.9 µM)
CC1(C)S[C@@H]2[C@H](NC(=O)[C@H](NC(=O)[C@H]3CCCCN3C(=O)OCc3ccccc3)c3ccc(O)cc3)C(=O)N2[C@H]1C(=O)O [Compound 8] | 1.25 (≈ 2.05 µM) | – | – | – | – | –
CC1(C)S[C@@H]2[C@H](NC(=O)[C@H](NC(=O)[C@H]3CCCCN3C(=O)OCc3ccccc3)c3ccccc3)C(=O)N2[C@H]1C(=O)O [Compound 9] | 0.62 (≈ 1.04 µM) | – | – | – | – | –
CC1(C)S[C@@H]2[C@H](NC(=O)[C@H](NC(=O)[C@H]3CCCCN3C(N)=O)c3ccccc3)C(=O)N2[C@H]1C(=O)O [Compound 10] | 0.31 (≈ 0.616 µM) | – | – | – | – | –
CC1(C)S[C@@H]2[C@H](NC(=O)[C@H](NC(=O)C3CCCCN3C(N)=O)c3ccccc3)C(=O)N2[C@H]1C(=O)O (stereo partly drawn) [Compound 11] | 0.31 (≈ 0.616 µM) | – | – | – | – | –
CC1(C)S[C@@H]2[C@H](NC(=O)[C@H](NC(=O)[C@H]3CCCCN3)c3ccccc3)C(=O)N2[C@H]1C(=O)O [Compound 12] | 1.25 (≈ 2.71 µM) | – | – | – | – | –
CC1(C)S[C@@H]2[C@H](NC(=O)[C@H](NC(=O)C3CCCCN3)c3ccccc3)C(=O)N2[C@H]1C(=O)O (stereo partly drawn) [Compound 13] | 3.75 (≈ 8.14 µM) | – | – | – | – | –
CC1(C)S[C@@H]2[C@H](NC(=O)[C@H](NC(=O)C3NCc4ccccc43)c3ccccc3)C(=O)N2[C@H]1C(=O)O (stereo partly drawn) [Compound 14] | 0.31 (≈ 0.627 µM) | – | – | – | – | –
CC1(C)S[C@@H]2[C@H](NC(=O)[C@H](NC(=O)[C@H]3Cc4ccccc4CN3)c3ccccc3)C(=O)N2[C@H]1C(=O)O [Compound 15] | 0.3 (≈ 0.59 µM) | 25 (≈ 49.2 µM) | 25 (≈ 49.2 µM) | 25 (≈ 49.2 µM) | 25 (≈ 49.2 µM) | MIC [6]: 25 µg/mL (≈ 49.2 µM); MIC [10]: 25 µg/mL (≈ 49.2 µM); MIC [7]: 25 µg/mL (≈ 49.2 µM); MIC [8]: 25 µg/mL (≈ 49.2 µM); MIC [9]: 50 µg/mL (≈ 98.3 µM)
CC1(C)S[C@@H]2[C@H](NC(=O)[C@H](NC(=O)C3Cc4ccccc4CN3)c3ccccc3)C(=O)N2[C@H]1C(=O)O (stereo partly drawn) [Compound 16] | 0.46 (≈ 0.904 µM) | – | – | – | – | –
Cc1ccc(S(=O)(=O)N(C)[C@H](C)C(=O)N[C@@H](C(=O)N[C@@H]2C(=O)N3[C@@H]2SC(C)(C)[C@@H]3C(=O)O)c2ccccc2)cc1 [Compound 17] | 0.15 (≈ 0.255 µM) | 25 (≈ 42.5 µM) | 12.5 (≈ 21.2 µM) | 12.5 (≈ 21.2 µM) | 9 (≈ 15.3 µM) | MIC [11, 13]: 12.5 µg/mL (≈ 21.2 µM); MIC [12]: 25 µg/mL (≈ 42.5 µM)
Cc1ccc(S(=O)(=O)N(C)[C@H](C)C(=O)N[C@@H](C(=O)N[C@@H]2C(=O)N3[C@@H]2SC(C)(C)[C@@H]3C(=O)O)c2ccc(O)cc2)cc1 [Compound 18] | 0.31 (≈ 0.513 µM) | – | – | – | – | –
Cc1ccc(S(=O)(=O)N(C)C(C)C(=O)N[C@@H](C(=O)N[C@@H]2C(=O)N3[C@@H]2SC(C)(C)[C@@H]3C(=O)O)c2ccccc2)cc1 (stereo partly drawn) [Compound 19] | 0.15 (≈ 0.255 µM) | 25 (≈ 42.5 µM) | 12.5 (≈ 21.2 µM) | 12.5 (≈ 21.2 µM) | 12.5 (≈ 21.2 µM) | MIC ([11]; TYPHIMURIUM, 20 h): 9 µg/mL (≈ 15.3 µM); MIC [12]: 37 µg/mL (≈ 62.8 µM)
CN[C@H](C)C(=O)N[C@@H](C(=O)N[C@@H]1C(=O)N2[C@@H]1SC(C)(C)[C@@H]2C(=O)O)c1ccccc1 [Compound 20] | 1.87 (≈ 4.3 µM) | 25 (≈ 57.5 µM) | 6.2 (≈ 14.3 µM) | 9.3 (≈ 21.4 µM) | 9.3 (≈ 21.4 µM) | MIC [12]: 37.5 µg/mL (≈ 86.3 µM)
CN[C@H](C)C(=O)N[C@@H](C(=O)N[C@@H]1C(=O)N2[C@@H]1SC(C)(C)[C@@H]2C(=O)O)c1ccc(O)cc1 [Compound 21] | 1.87 (≈ 4.15 µM) | 12.3 (≈ 27.3 µM) | 4.7 (≈ 10.4 µM) | 6.2 (≈ 13.8 µM) | 3.1 (≈ 6.88 µM) | –
Cc1ccc(S(=O)(=O)N(C)CC(=O)N[C@@H](C(=O)N[C@@H]2C(=O)N3[C@@H]2SC(C)(C)[C@@H]3C(=O)O)c2ccccc2)cc1 [Compound 22] | 0.31 (≈ 0.539 µM) | 25 (≈ 43.5 µM) | 25 (≈ 43.5 µM) | 23 (≈ 40 µM) | 12.5 (≈ 21.8 µM) | MIC [12]: 25 µg/mL (≈ 43.5 µM)
Cc1ccc(S(=O)(=O)N(C)[C@H](CC(C)C)C(=O)N[C@@H](C(=O)N[C@@H]2C(=O)N3[C@@H]2SC(C)(C)[C@@H]3C(=O)O)c2ccccc2)cc1 [Compound 23] | 0.62 (≈ 0.983 µM) | – | – | – | – | –
CC(C)C[C@H](C(=O)N[C@@H](C(=O)N[C@@H]1C(=O)N2[C@@H]1SC(C)(C)[C@@H]2C(=O)O)c1ccccc1)N(C)C(=O)OCc1ccccc1 [Compound 24] | 0.62 (≈ 1.02 µM) | 50 (≈ 81.9 µM) | 100 (≈ 164 µM) | 100 (≈ 164 µM) | 100 (≈ 164 µM) | MIC ([11]; TYPHIMURIUM, 20 h): < 6.25 µg/mL; MIC [12]: 100 µg/mL (≈ 164 µM)
CN(C(=O)OCc1ccccc1)[C@@H](C(=O)N[C@@H](C(=O)N[C@@H]1C(=O)N2[C@@H]1SC(C)(C)[C@@H]2C(=O)O)c1ccccc1)c1ccccc1 [Compound 25] | 3.62 (≈ 5.74 µM) | 50 (≈ 79.3 µM) | 25 (≈ 39.6 µM) | 25 (≈ 39.6 µM) | 25 (≈ 39.6 µM) | MIC [11, 13]: 12.5 µg/mL (≈ 19.8 µM)
Cc1ccc(S(=O)(=O)N(C)[C@@H](C(=O)N[C@@H](C(=O)N[C@@H]2C(=O)N3[C@@H]2SC(C)(C)[C@@H]3C(=O)O)c2ccccc2)c2ccccc2)cc1 [Compound 26] | 0.62 (≈ 0.953 µM) | – | – | – | – | –
CN[C@H](CC(C)C)C(=O)N[C@@H](C(=O)N[C@@H]1C(=O)N2[C@@H]1SC(C)(C)[C@@H]2C(=O)O)c1ccccc1 [Compound 27] | 0.62 (≈ 1.3 µM) | – | – | – | – | –
CC1(C)S[C@@H]2[C@H](NC(=O)[C@H](NC(=O)[C@H]3CCN3)c3ccccc3)C(=O)N2[C@H]1C(=O)O [Compound 28] | 3.75 (≈ 8.67 µM) | 50 (≈ 116 µM) | 6.2 (≈ 14.3 µM) | 6.2 (≈ 14.3 µM) | 12.5 (≈ 28.9 µM) | MIC [12]: 25 µg/mL (≈ 57.8 µM)
CC1(C)S[C@@H]2[C@H](NC(=O)[C@H](NC(=O)[C@H]3CCN3)c3ccc(O)cc3)C(=O)N2[C@H]1C(=O)O [Compound 29] | 5 (≈ 11.1 µM) | 18.7 (≈ 41.7 µM) | 3.1 (≈ 6.91 µM) | 3.1 (≈ 6.91 µM) | 3.1 (≈ 6.91 µM) | MIC [12]: 37.5 µg/mL (≈ 83.6 µM)
